Reference: publication PMC9475448, “What a difference a methylene makes: replacing Glu with Asp or Aad in the Lys-urea-Glu pharmacophore of PSMA-targeting radioligands to reduce kidney and salivary gland uptake” (Theranostics, 2022)
Values joined by “and” are separate entries in the source; they are usually repeats but may differ in a detail not shown here. Equal values may be shown once. Each block holds one compound with its values, some of them ahead of it.

Tested on: LNCaP tumor-bearing mice
Assay: Ex vivo biodistribution of 68Ga-labeled ligands in LNCaP tumor-bearing NSG mice
[1] = 1 h post-injection, listed as [68Ga]Ga-HTK03189A
[2] = 1 h post-injection, listed as [68Ga]Ga-HTK03189B
[3] = 1 h blocked, co-injected with DCFPyL (0.5 mg)
[4] = 1 h post-injection, listed as [68Ga]Ga-HTK03149
[5] = co-injection of DCFPyL (0.5 mg), 1 h post-injection
[6] = 1 h post-injection, listed as [68Ga]Ga-HTK03161

Higher tumor uptake than [68Ga]Ga-HTK03189B (1 h post-injection): ~ 2 fold
Adrenal glands uptake [1]: 0.35 ± 0.06 %IA/g
Blood uptake [1]: 0.89 ± 0.22 %IA/g
Blood:Salivary gland uptake ratio [1]: 4.39 ± 0.44
Bone uptake [1]: 0.12 ± 0.03 %IA/g
Brain uptake [1]: 0.02 ± 0.00 %IA/g
Fat uptake [1]: 0.18 ± 0.11 %IA/g
Heart uptake [1]: 0.24 ± 0.06 %IA/g
Intestines uptake [1]: 0.31 ± 0.18 %IA/g
Kidneys uptake [1]: 2.65 ± 0.69 %IA/g
Lacrimal glands uptake [1]: 0.18 ± 0.18 %IA/g
Liver uptake [1]: 0.34 ± 0.15 %IA/g
Lungs uptake [1]: 0.68 ± 0.12 %IA/g
Muscle uptake [1]: 0.14 ± 0.04 %IA/g
Pancreas uptake [1]: 0.15 ± 0.04 %IA/g
Salivary glands uptake [1]: 0.20 ± 0.04 %IA/g
Spleen uptake [1]: 0.21 ± 0.10 %IA/g
Stomach uptake [1]: 0.11 ± 0.06 %IA/g
Testes uptake [1]: 0.23 ± 0.11 %IA/g
Thyroid uptake [1]: 0.25 ± 0.05 %IA/g
Tumor uptake [1]: 2.10 ± 0.28 %IA/g
Tumor:Blood uptake ratio [1]: 2.41 ± 0.29
Tumor:Kidney uptake ratio [1]: 0.83 ± 0.21
Tumor:Muscle uptake ratio [1]: 16.5 ± 4.08
Tumor:Salivary gland uptake ratio [1]: 10.5 ± 1.07
Tumor uptake (1 h post-injection, listed as [^68Ga]Ga-HTK0189A): 2.10±0.28 %IA/g
SMILES: O=C([O-])CN1CCN(CC(=O)[O-])CCN(CC(=O)NCC2CCC(C(=O)NC(Cc3c4ccccc4cc4ccccc34)C(=O)NCCCCC(NC(=O)NC(CCCCC(=O)O)C(=O)O)C(=O)O)CC2)CCN(CC(=O)[O-])CC1.[68Ga+3] (single isomer, unassigned) [[^68Ga]Ga-HTK03189A]

Tumor uptake (1 h post-injection): 0.67±0.15 %IA/g
Adrenal glands uptake [2]: 0.37 ± 0.15 %IA/g
Blood uptake [2]: 1.06 ± 0.25 %IA/g
Blood:Salivary gland uptake ratio [2]: 4.86 ± 1.16
Bone uptake [2]: 0.10 ± 0.02 %IA/g
Brain uptake [2]: 0.03 ± 0.00 %IA/g
Fat uptake [2]: 0.17 ± 0.10 %IA/g
Heart uptake [2]: 0.30 ± 0.06 %IA/g
Intestines uptake [2]: 0.28 ± 0.07 %IA/g
Kidneys uptake [2]: 2.13 ± 0.45 %IA/g
Lacrimal glands uptake [2]: 0.13 ± 0.04 %IA/g
Liver uptake [2]: 0.39 ± 0.08 %IA/g
Lungs uptake [2]: 0.82 ± 0.22 %IA/g
Muscle uptake [2]: 0.12 ± 0.03 %IA/g
Pancreas uptake [2]: 0.18 ± 0.05 %IA/g
Salivary glands uptake [2]: 0.22 ± 0.04 %IA/g
Spleen uptake [2]: 0.20 ± 0.05 %IA/g
Stomach uptake [2]: 0.11 ± 0.03 %IA/g
Testes uptake [2]: 0.26 ± 0.05 %IA/g
Thyroid uptake [2]: 0.29 ± 0.08 %IA/g
Tumor uptake [2]: 0.67 ± 0.15 %IA/g
Tumor:Blood uptake ratio [2]: 0.65 ± 0.15
Tumor:Kidney uptake ratio [2]: 0.32 ± 0.05
Tumor:Muscle uptake ratio [2]: 5.68 ± 1.12
Tumor:Salivary gland uptake ratio [2]: 3.08 ± 0.53
SMILES: O=C([O-])CN1CCN(CC(=O)[O-])CCN(CC(=O)NCC2CCC(C(=O)NC(Cc3c4ccccc4cc4ccccc34)C(=O)NCCCCC(NC(=O)NC(CCCCC(=O)O)C(=O)O)C(=O)O)CC2)CCN(CC(=O)[O-])CC1.[68Ga+3] (single isomer, unassigned) [[^68Ga]Ga-HTK03189B]

SMILES: O=C([O-])CN1CCN(CC(=O)[O-])CCN(CC(=O)NCC2CCC(C(=O)NC(Cc3c4ccccc4cc4ccccc34)C(=O)NCCCCC(NC(=O)NC(CCCC(=O)O)C(=O)O)C(=O)O)CC2)CCN(CC(=O)[O-])CC1.[68Ga+3] (stereo not drawn) [[^68Ga]Ga-HTK03149]
Adrenal glands uptake [3]: 0.22 ± 0.03 %IA/g
Blood uptake [3]: 0.67 ± 0.04 %IA/g
Blood:Salivary gland uptake ratio [3]: 4.80 ± 0.54
Bone uptake [3]: 0.07 ± 0.01 %IA/g
Brain uptake [3]: 0.02 ± 0.00 %IA/g
Fat uptake [3]: 0.08 ± 0.01 %IA/g
Heart uptake [3]: 0.19 ± 0.01 %IA/g
Intestines uptake [3]: 0.21 ± 0.04 %IA/g
Kidneys uptake [3]: 1.93 ± 0.39 %IA/g
Lacrimal glands uptake [3]: 0.14 ± 0.08 %IA/g
Liver uptake [3]: 0.22 ± 0.03 %IA/g
Lungs uptake [3]: 0.49 ± 0.03 %IA/g
Muscle uptake [3]: 0.08 ± 0.01 %IA/g
Pancreas uptake [3]: 0.12 ± 0.01 %IA/g
Salivary glands uptake [3]: 0.14 ± 0.01 %IA/g
Spleen uptake [3]: 0.15 ± 0.04 %IA/g
Stomach uptake [3]: 0.04 ± 0.00 %IA/g
Testes uptake [3]: 0.19 ± 0.02 %IA/g
Thyroid uptake [3]: 0.18 ± 0.01 %IA/g
Tumor uptake [3]: 0.77 ± 0.06 %IA/g
Tumor:Blood uptake ratio [3]: 1.16 ± 0.13
Tumor:Kidney uptake ratio [3]: 0.41 ± 0.09
Tumor:Muscle uptake ratio [3]: 7.18 ± 3.58
Tumor:Salivary gland uptake ratio [3]: 5.53 ± 0.39
Adrenal glands uptake (1 h post-injection): 0.33 ± 0.11 %IA/g
Blood uptake (1 h post-injection): 0.70 ± 0.17 %IA/g
Blood:Salivary gland uptake ratio (1 h post-injection): 3.21±0.64
Bone uptake (1 h post-injection): 0.11 ± 0.04 %IA/g
Brain uptake (1 h post-injection): 0.02 ± 0.00 %IA/g
Fat uptake (1 h post-injection): 0.17 ± 0.15 %IA/g
Heart uptake (1 h post-injection): 0.21 ± 0.03 %IA/g
Intestines uptake (1 h post-injection): 0.24 ± 0.05 %IA/g
Kidneys uptake (1 h post-injection): 4.15±1.46 %IA/g
Lacrimal glands uptake (1 h post-injection): 0.15 ± 0.09 %IA/g
Liver uptake (1 h post-injection): 0.25 ± 0.06 %IA/g
Lungs uptake (1 h post-injection): 0.53 ± 0.09 %IA/g
Muscle uptake (1 h post-injection): 0.11 ± 0.04 %IA/g
Pancreas uptake (1 h post-injection): 0.13 ± 0.02 %IA/g
Salivary glands uptake (1 h post-injection): 0.22±0.06 %IA/g
Spleen uptake (1 h post-injection): 0.27 ± 0.05 %IA/g
Stomach uptake (1 h post-injection): 0.07 ± 0.01 %IA/g
Testes uptake (1 h post-injection): 0.23 ± 0.13 %IA/g
Thyroid uptake (1 h post-injection): 0.20 ± 0.05 %IA/g
Tumor uptake (1 h post-injection): 19.1±6.37 %IA/g
Tumor:Blood uptake ratio (1 h post-injection): 29.5±15.8
Tumor:Kidney uptake ratio (1 h post-injection): 5.44±3.88 and > 5.0
Tumor:Muscle uptake ratio (1 h post-injection): 185±79.6
Tumor:Salivary gland uptake ratio (1 h post-injection): 97.3±59.2
Kidneys uptake [4]: 4.15 ± 1.46 %IA/g
Salivary glands uptake [4]: 0.22 ± 0.06 %IA/g
Tumor uptake [4]: 19.1 ± 6.37 %IA/g
Reduction of average uptake in LNCaP tumor xenografts by blocking [5]: 96%
Reduction of average uptake in kidneys by blocking [5]: 53%
Reduction of average uptake in salivary glands by blocking [5]: 36%

Adrenal glands uptake (1 h post-injection): 0.41 ± 0.07 %IA/g
Blood uptake (1 h post-injection): 1.13 ± 0.19 %IA/g
Blood:Salivary gland uptake ratio (1 h post-injection): 5.08±0.62
Bone uptake (1 h post-injection): 0.11 ± 0.02 %IA/g
Brain uptake (1 h post-injection): 0.02 ± 0.00 %IA/g
Fat uptake (1 h post-injection): 0.15 ± 0.04 %IA/g
Heart uptake (1 h post-injection): 0.32 ± 0.05 %IA/g
Intestines uptake (1 h post-injection): 0.31 ± 0.09 %IA/g
Kidneys uptake (1 h post-injection): 4.41±1.26 %IA/g
Lacrimal glands uptake (1 h post-injection): 0.12 ± 0.06 %IA/g
Liver uptake (1 h post-injection): 0.28 ± 0.05 %IA/g
Lungs uptake (1 h post-injection): 0.75 ± 0.13 %IA/g
Muscle uptake (1 h post-injection): 0.15 ± 0.04 %IA/g
Pancreas uptake (1 h post-injection): 0.18 ± 0.03 %IA/g
Salivary glands uptake (1 h post-injection): 0.23±0.05 %IA/g
Spleen uptake (1 h post-injection): 0.27 ± 0.06 %IA/g
Stomach uptake (1 h post-injection): 0.10 ± 0.04 %IA/g
Testes uptake (1 h post-injection): 0.54 ± 0.51 %IA/g
Thyroid uptake (1 h post-injection): 0.29 ± 0.05 %IA/g
Tumor uptake (1 h post-injection): 12.7±1.91 %IA/g
Tumor:Blood uptake ratio (1 h post-injection): 11.4 ± 1.73
Tumor:Kidney uptake ratio (1 h post-injection): 3.03 ± 0.84
Tumor:Muscle uptake ratio (1 h post-injection): 89.4 ± 36.1
Tumor:Salivary gland uptake ratio (1 h post-injection): 57.2 ± 7.11
Kidneys uptake [6]: 4.41 ± 1.26 %IA/g
Salivary glands uptake [6]: 0.23 ± 0.05 %IA/g
Tumor uptake [6]: 12.7 ± 1.91 %IA/g
SMILES: O=C([O-])CN1CCN(CC(=O)[O-])CCN(CC(=O)NCC2CCC(C(=O)NC(Cc3c4ccccc4cc4ccccc34)C(=O)NCCCCC(NC(=O)NC(CC(=O)O)C(=O)O)C(=O)O)CC2)CCN(CC(=O)[O-])CC1.[68Ga+3] (stereo not drawn) [[^68Ga]Ga-HTK03161]
